Test results reported in patent publication US20080269326A1, “Use of 1-Phenyl-3-Dimethylamino-propane Compounds for Treating Neuropathic Pain” (GRUENENTHAL GmbH, priority 2007, published 2008).

Key:
[1] = system: cold allodynia in Bennett animals; experiment: Bennett model (chronic constriction injury), cold allodynia on 4° C. cold metal plate; format: in vivo, rat
Experimental: The effectiveness in treating neuropathic pain was investigated in the Bennett model (chronic constriction injury; Bennett and Xie, 1988, Pain 33: 87-107).
(§1) Sprague-Dawley rats weighing 140-160 g are provided with four loose ligatures of the right sciatic nerve under nembutal narcosis. The animals develop a hypersensitivity in the paw innervated by the damaged nerve, which after a healing phase of one week is quantified over about four weeks by means of a 4° C. cold metal plate (cold allodynia). The animals are observed for two minutes on this plate and the number of retractive movements of the damaged paw are measured. The effect of the substance is determined with reference to the base value before application of the substance, at four different times over a period of one hour(15, 30, 45 and 60 minutes after application) and the resultant area under the curve (AUD) as well as the inhibition of cold allodynia at the individual measurement points is expressed in percent effect with reference to the vehicle control (AUD) and to the initial value (individual measurement points). The cohort size is n=10.

[2] = system: tactile allodynia in Chung animals; experiment: Chung model (spinal nerve ligature), tactile allodynia, electronic von Frey; format: in vivo; details: Rattus norvegicus, ip, 0.5 h; rats, i.p., 30 minutes after administration
Experimental: Spinal nerve ligatures according to Kim & Chung (1992 Pain 50, 355-363) were applied to the left L5/L6 spinal nerves of male Spraque-Dawley rats. Four to six days after the operation the tactile threshold baseline (withdrawal threshold) was measured on the ipsilateral and contralateral rear paw by an electronic von Frey anaesthesiometer (IITC Life Science, USA). After the test and measurement of the baseline, morphine, gabapentin and some of the aforementioned compounds used according to the invention were administered. The tactile withdrawal thresholds were measured 30 minutes after the administration. The results are expressed as ED50 and % maximal possible effect (% MPE) on the ipsilateral side, in which the baseline is taken as 0% and the withdrawal threshold of a control group is taken as 100% MPE.

[3] = system: cold allodynia in morphine-tolerant Bennett animals; experiment: Bennett model cold allodynia in morphine-tolerant animals; format: in vivo, rat
Experimental: as §1
The underlying question is the action of a test substance having a presumably opioid action mechanism in patients who are tolerant or treatment-resistant to morphine. […] The action of test substances in naive (non-morphine-tolerant) animals and morphine-tolerant animals is compared in Table 4. […] Morphine [10 mg/kg i.p.], Compound 9 [10 and 21.5 mg/kg i.p.], Compound 10 [0.46 and 1 mg/kg i.p.], Compound 4 [21.5 mg/kg i.p.] and Compound 11 [21.5 mg/kg i.p.] were tested analogously to Example 1.

`CC[C@@H](c1cccc(O)c1)[C@@H](C)CN(C)C` [Compound 9, (1R,2R)-3-(3-dimethylamino-1-ethyl-2-methylpropyl)-phenol] was tested, and the “Cold allodynia (% AUD) Naïve animals” value ([1]; 10 mg/kg i.p.) was 49.3 % AUD, the “Cold allodynia (% AUD) Naïve animals” value ([1]; 21.5 mg/kg i.p.) was 53.4 % AUD and the ED50 ([1]; Rattus norvegicus, ip, rats) was 13 mg/kg. The ED50 [2] was 8.15 mg/kg, the “Cold allodynia (% AUD) Morphine-tolerant animals” value ([3]; 10 mg/kg i.p.) was 37.3 % AUD and the “Cold allodynia (% AUD) Morphine-tolerant animals” value ([3]; 21.5 mg/kg i.p.) was 36.7 % AUD.
